{
  "source": "patent US20110218515A1",
  "about": "“Methods for Treating Acute Myocardial Infarctions and Associated Disorders” (The Regents of the University of California, priority 2009, published 2011)",
  "type_in_all_cases": "in vivo",
  "key": {"[1]": {"test_system": "congestive heart failure dogs, coronary perfused left ventricular preparation", "test": "VF frequency domain analysis (dominant frequency), pacing-induced heart failure dogs", "conditions": "CHF dogs with PFD", "from_the_text": "(§1) Animal Models: Twenty-four dogs weighing 25-30 Kg were divided into three groups: control (n=11), congestive heart failure (n=7), and congestive heart failure with the antifibrotic drug pirfenidone (n=6). Heart Failure (CHF) was induced in 7 dogs via four weeks of rapid ventricular pacing via a lead placed in the RV and pulse generator set to pace at 240 bpm followed by ablation of the AV node to create complete heart block, as described in Li, et al., Circulation 1999; 100:87-95. Ventricular function was monitored weekly with transthoracic echocardiography for 4 weeks. At 4 weeks, the optical mapping study was performed.\n(§2) Heart Failure with Pirfenidone (PFD): Heart failure was induced in 6 dogs as described above and PFD was administered as described in Lee et al., Circulation 2006; 114; 1703-12. Oral PFD (800 mg 3 times per day; InterMune, Brisbane, Calif.) was started 2 days before the initiation of pacing and was discontinued >6 half-lives (24 hours) before the optical mapping study.\n(§3) With an optical mapping system described in Wu et al., J Cardiovasc Electrophysiol 1998; 9:1336-47, optical recordings were then made from 4-cm^2 area on 3 surfaces of the preparation (epicardial, endocardial (including the papillary muscle, and transmural) by a 16×16 photodiode array (C4657 Hamamatsu, Bridgewater, N.J.) that recorded 256 simultaneous optical action potentials. During optical recordings from a preparation, contractility was blocked with 15 mM 2,3-butadione monoxime (BDM; Sigma-Aldrich)11. Plunge electrodes were placed on the recording surface around the field of view for both pacing and monitoring. Two plunge electrodes were dedicated for recording a bipolar signal for monitoring the electrical activity of the preparation. VF was initiated with either extra stimuli or with rapid burst pacing at a cycle length of 50 ms, a pulse width of 9.9 ms, and an output of 9.9 mA. Several 4-s episodes of VF were recorded on each surface in each preparation. Activation movies of the VF were then viewed, and the activation patterns were determined. After termination of VF, signals were obtained during pacing at 250 ms and isochronal maps of activation were constructed to look at conduction. Activation patterns and wave-front direction during VF were determined from raw fluorescence movies (isopotential). […] VF was defined as rapid and irregular activations on the bipolar signal used for monitoring the electrical activity of the preparation.\n(§4) Signal Processing and Frequency Domain Analysis: The signals obtained from the optical mapping recordings were sampled at 2,000 Hz, and for each signal the dominant frequency (DF) was determined and the organization was calculated as described Everett, et al., IEEE Trans Biomed Eng 2001; 48:969-78. Briefly, a fast Fourier transform (FFT) was calculated on the digitally filtered waveform. The data were detrended and multiplied by a Hamming window. The largest peak of the resulting magnitude spectrum was identified, and the positions of the harmonic peaks were determined on the basis of its position. The areas under the largest peak and three of its harmonic peaks were each calculated over a 1-Hz window. This produced an area under four peaks. The total area of the spectrum was calculated from 2 Hz up to but not including the fifth harmonic peak. The ratio of the power under the harmonic peaks to the total power in this range was calculated, and the resulting number was defined as the organization index (OI). The OI was theorized to represent the organization of AF for that signal at that period in time. To calculate the variance of the DFs, spatial coefficient of variance (SD/mean) of the DFs during a single episode of AF among all recording sites and temporal coefficient of variance of average DFs from among AF episodes for each mapping field within each preparation were calculated. Discrete, stable, high frequency areas were noted. […]"}, "[2]": {"test_system": "congestive heart failure dogs, coronary perfused left ventricular preparation", "test": "VF organization index analysis, pacing-induced heart failure dogs", "design": "key to OI Spatial CoV / OI Temporal CoV: coefficient of variance = SD/mean", "conditions": "CHF dogs with PFD", "from_the_text": "as §1, §2, §3, §4"}, "[3]": {"test_system": "congestive heart failure dogs, coronary perfused left ventricular preparation", "test": "Ventricular fibrillation optical mapping, activation patterns, pacing-induced heart failure dogs", "from_the_text": "as §1, §2\nOptical Mapping Studies: A coronary perfused left ventricular preparation was used as described in Wu et al., J Cardiovasc Electrophysiol 1998; 9:1336-47. Briefly, following sedation with sodium pentothal (0.25 mg/Kg), a left lateral thoracotomy is performed and the heart was rapidly excised. It was then perfused with cardioplegic solution ((in mmol/L): NaCl 123, KCl 15, NaHCO3 22, NaH2PO4 0.65, MgCl2 0.50, glucose 5.5, CaCl2 2, bubbled with 95% O2/5% CO2) retrogradely through the aorta. The ventricles were removed at approximately 1 cm below the AV ring and the left anterior descending coronary artery (LAD) was perfused. The right ventricle was removed and the left ventricle was cut to the size that was perfused by the LAD and included a papillary muscle. All ventricular branches were then ligated.\nThe ventricular preparation was then transferred to a tissue chamber maintained at 37° C. The perfusion line in the LAD was perfused with modified Tyrode's solution ((in mmol/L): NaCl 123, KCl 5.4, NaHCO3 22, NaH2PO4 0.65, MgCl2 0.50, glucose 5.5, CaCl2 2, bubbled with 95% O2/5% CO2). Prior to optical recordings, a bolus of 30-40 μl of the voltage sensitive dye PGH-1 was injected directly into the perfusate.\nWith an optical mapping system described in Wu et al., J Cardiovasc Electrophysiol 1998; 9:1336-47, optical recordings were then made from 4-cm^2 area on 3 surfaces of the preparation (epicardial, endocardial (including the papillary muscle, and transmural) by a 16×16 photodiode array (C4657 Hamamatsu, Bridgewater, N.J.) that recorded 256 simultaneous optical action potentials. During optical recordings from a preparation, contractility was blocked with 15 mM 2,3-butadione monoxime (BDM; Sigma-Aldrich)11. Plunge electrodes were placed on the recording surface around the field of view for both pacing and monitoring. Two plunge electrodes were dedicated for recording a bipolar signal for monitoring the electrical activity of the preparation. VF was initiated with either extra stimuli or with rapid burst pacing at a cycle length of 50 ms, a pulse width of 9.9 ms, and an output of 9.9 mA. Several 4-s episodes of VF were recorded on each surface in each preparation. Activation movies of the VF were then viewed, and the activation patterns were determined. […] Activation patterns and wave-front direction during VF were determined from raw fluorescence movies (isopotential). […]"}, "[4]": {"conditions": "CHF dogs, oral PFD 800 mg 3 times per day, one line per dog, listed as PFD"}},
  "note": "“Also recorded” adds a separate entry of the source.",
  "data": [
    {"molecule": "Cc1ccc(=O)n(-c2ccccc2)c1", "note": "[pirfenidone]", "values": [
      {"measurement": "dogs with at least one surface with VF characterized by high DF areas", "setting": "[1]; CHF 6 of 7, Controls 3 of 11", "value": "3 of 6"},
      {"measurement": "gradient of frequencies over distance, transmural surface", "setting": "[1]; untreated heart failure animals have a very large gradient", "value": "preserved the transmural gradient to that similar to control animals"},
      {"measurement": "DF Spatial CoV", "setting": "[1]; Endocardium", "value": "0.11 ± 0.04"},
      {"measurement": "DF Temporal CoV", "setting": "[1]; Endocardium", "value": "0.07 ± 0.03"},
      {"measurement": "Max DF", "setting": "[1]; Endocardium", "value": "10.44 ± 1.32", "unit": "Hz"},
      {"measurement": "Mean DF", "setting": "[1]; Endocardium", "value": "8.29 ± 0.68", "unit": "Hz"},
      {"measurement": "DF Spatial CoV", "setting": "[1]; Epicardium", "value": "0.09 ± 0.04"},
      {"measurement": "DF Temporal CoV", "setting": "[1]; Epicardium", "value": "0.05 ± 0.01"},
      {"measurement": "Max DF", "setting": "[1]; Epicardium", "value": "10.92 ± 0.98", "unit": "Hz"},
      {"measurement": "Mean DF", "setting": "[1]; Epicardium", "value": "9.17 ± 1.08", "unit": "Hz"},
      {"measurement": "DF Spatial CoV", "setting": "[1]; Transmural", "value": "0.14 ± 0.06"},
      {"measurement": "DF Temporal CoV", "setting": "[1]; Transmural", "value": "0.08 ± 0.02"},
      {"measurement": "Max DF", "setting": "[1]; Transmural", "value": "10.24 ± 1.89", "unit": "Hz"},
      {"measurement": "Mean DF", "setting": "[1]; Transmural", "value": "7.93 ± 1.52", "unit": "Hz"},
      {"measurement": "Max OI", "setting": "[2]; Endocardium", "value": "0.61 ± 0.05"},
      {"measurement": "Mean OI", "setting": "[2]; Endocardium", "value": "0.45 ± 0.05"},
      {"measurement": "OI Spatial CoV", "setting": "[2]; Endocardium", "value": "0.16 ± 0.03"},
      {"measurement": "OI Temporal CoV", "setting": "[2]; Endocardium", "value": "0.13 ± 0.01"},
      {"measurement": "Max OI", "setting": "[2]; Epicardium", "value": "0.62 ± 0.05"},
      {"measurement": "Mean OI", "setting": "[2]; Epicardium", "value": "0.44 ± 0.05"},
      {"measurement": "OI Spatial CoV", "setting": "[2]; Epicardium", "value": "0.17 ± 0.01"},
      {"measurement": "OI Temporal CoV", "setting": "[2]; Epicardium", "value": "0.14 ± 0.01"},
      {"measurement": "Max OI", "setting": "[2]; Transmural", "value": "0.65 ± 0.06"},
      {"measurement": "Mean OI", "setting": "[2]; Transmural", "value": "0.48 ± 0.05"},
      {"measurement": "OI Spatial CoV", "setting": "[2]; Transmural", "value": "0.17 ± 0.03"},
      {"measurement": "OI Temporal CoV", "setting": "[2]; Transmural", "value": "0.13 ± 0.01"},
      {"measurement": "mapped epicardial surfaces having either focal activation or a spiral wave", "setting": "[3]; CHF dogs with PFD", "value": "2/6"},
      {"measurement": "mapped transmural surfaces with spiral wave activation pattern correlated to stable high DF areas", "setting": "[3]; CHF dogs with PFD", "value": 50, "unit": "%"},
      {"measurement": "VF Activation Patterns, Endocardial", "setting": "[3]; [4]", "value": "either multiple or broad wavefront activation; also recorded: multiple wave; also recorded: broad wavefront"},
      {"measurement": "VF Activation Patterns, Epicardial", "setting": "[3]; [4]", "value": "multiple wave; also recorded: focal"},
      {"measurement": "VF Activation Patterns, Transmural", "setting": "[3]; [4]", "value": "spiral wave; also recorded: multiple wave"}
    ]}
  ]
}
